Measured values: ChEMBL document CHEMBL5233285, “Recent Update on the Development of PCSK9 Inhibitors for Hypercholesterolemia Treatment” (J Med Chem, 2022)
Numbered stars: 1 amine (or outer) side, 2 acyl side, 3 side chain; on linkers, the order of the positions; unused ones are H or OH. Square brackets hold non-standard residues; d marks the D form. Peptide text beside a SMILES is read from it. X1 = O=C(C1(N[*:1])CCC(c2ccccc2)CC1)[*:2]; hArg = N=C(N)NCCCC[C@H](N)C(=O)O

Legend:
[1] = target: T1, Proprotein convertase subtilisin/kexin type 9 (Homo sapiens, UniProt Q8NBP7); assay: Inhibition of human PCSK9
T1 sequence (Q8NBP7 31-152 limits assumed): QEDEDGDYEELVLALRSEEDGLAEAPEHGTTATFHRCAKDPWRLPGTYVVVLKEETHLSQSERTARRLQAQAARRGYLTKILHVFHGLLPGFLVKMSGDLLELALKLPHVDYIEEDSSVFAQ
T1 sequence (Q8NBP7 153-692 limits assumed): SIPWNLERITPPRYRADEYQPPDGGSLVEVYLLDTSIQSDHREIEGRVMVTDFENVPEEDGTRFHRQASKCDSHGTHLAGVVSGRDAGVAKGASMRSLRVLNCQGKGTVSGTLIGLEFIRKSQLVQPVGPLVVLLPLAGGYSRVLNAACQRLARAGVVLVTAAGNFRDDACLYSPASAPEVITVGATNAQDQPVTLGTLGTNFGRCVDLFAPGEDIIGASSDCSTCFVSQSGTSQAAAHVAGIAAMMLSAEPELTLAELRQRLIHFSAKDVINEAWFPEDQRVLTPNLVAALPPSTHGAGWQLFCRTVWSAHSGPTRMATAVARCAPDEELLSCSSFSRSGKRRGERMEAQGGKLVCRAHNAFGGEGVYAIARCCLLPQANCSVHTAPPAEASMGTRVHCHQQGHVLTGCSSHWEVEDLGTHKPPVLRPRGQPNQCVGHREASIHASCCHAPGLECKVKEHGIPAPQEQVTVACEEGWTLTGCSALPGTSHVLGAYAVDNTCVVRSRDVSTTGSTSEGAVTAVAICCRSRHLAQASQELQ

[2] = target: T1, Proprotein convertase subtilisin/kexin type 9; assay: Inhibition of human PCSK9 preincubated for 30 mins followed by ab20 addition and measured after 2 hrs by TR-FRET assay
[3] = target: T1, Proprotein convertase subtilisin/kexin type 9; assay: Inhibition of human PCSK9 preincubated for 30 mins followed by EGF(A) addition and measured after 2 hrs by TR-FRET assay
PCSK9/LDLR [4] = target: T2, PCSK9/LDLR (Homo sapiens, UniProt Q8NBP7); assay: Inhibition of PCSK9-LDLR (unknown origin) protein-protein interaction; type: protein assay
T2 sequence (Q8NBP7 31-152 limits assumed): as the sequence (Q8NBP7 31-152 limits assumed) above
T2 sequence (Q8NBP7 153-692 limits assumed): as the sequence (Q8NBP7 153-692 limits assumed) above
T2 sequence (P01130 22-860 partner limits assumed): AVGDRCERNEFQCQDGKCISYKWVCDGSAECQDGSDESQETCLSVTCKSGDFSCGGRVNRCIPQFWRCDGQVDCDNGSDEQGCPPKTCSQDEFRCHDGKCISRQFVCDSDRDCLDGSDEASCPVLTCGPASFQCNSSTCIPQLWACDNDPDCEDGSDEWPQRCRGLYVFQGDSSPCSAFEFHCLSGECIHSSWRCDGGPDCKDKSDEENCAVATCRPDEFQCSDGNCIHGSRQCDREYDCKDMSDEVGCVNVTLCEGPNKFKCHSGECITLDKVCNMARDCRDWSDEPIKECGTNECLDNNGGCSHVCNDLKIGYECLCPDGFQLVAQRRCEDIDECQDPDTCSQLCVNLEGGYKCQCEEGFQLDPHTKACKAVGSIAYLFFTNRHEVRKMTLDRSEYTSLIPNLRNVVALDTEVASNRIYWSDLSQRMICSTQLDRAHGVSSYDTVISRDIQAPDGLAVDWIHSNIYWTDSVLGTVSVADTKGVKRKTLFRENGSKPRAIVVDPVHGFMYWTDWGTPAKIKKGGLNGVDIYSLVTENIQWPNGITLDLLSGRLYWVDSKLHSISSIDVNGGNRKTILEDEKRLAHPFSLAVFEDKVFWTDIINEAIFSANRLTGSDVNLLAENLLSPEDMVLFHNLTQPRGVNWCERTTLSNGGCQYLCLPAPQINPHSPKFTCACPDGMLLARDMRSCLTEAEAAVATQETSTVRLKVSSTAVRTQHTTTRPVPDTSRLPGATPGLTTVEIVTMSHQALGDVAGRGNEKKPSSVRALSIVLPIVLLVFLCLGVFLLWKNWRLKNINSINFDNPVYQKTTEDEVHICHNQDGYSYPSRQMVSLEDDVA

[5] = target: T3, 3-hydroxy-3-methylglutaryl-coenzyme A reductase (Homo sapiens, UniProt P04035); assay: Inhibition of HMG CoA reductase (unknown origin)
T3 sequence (P04035 whole entry): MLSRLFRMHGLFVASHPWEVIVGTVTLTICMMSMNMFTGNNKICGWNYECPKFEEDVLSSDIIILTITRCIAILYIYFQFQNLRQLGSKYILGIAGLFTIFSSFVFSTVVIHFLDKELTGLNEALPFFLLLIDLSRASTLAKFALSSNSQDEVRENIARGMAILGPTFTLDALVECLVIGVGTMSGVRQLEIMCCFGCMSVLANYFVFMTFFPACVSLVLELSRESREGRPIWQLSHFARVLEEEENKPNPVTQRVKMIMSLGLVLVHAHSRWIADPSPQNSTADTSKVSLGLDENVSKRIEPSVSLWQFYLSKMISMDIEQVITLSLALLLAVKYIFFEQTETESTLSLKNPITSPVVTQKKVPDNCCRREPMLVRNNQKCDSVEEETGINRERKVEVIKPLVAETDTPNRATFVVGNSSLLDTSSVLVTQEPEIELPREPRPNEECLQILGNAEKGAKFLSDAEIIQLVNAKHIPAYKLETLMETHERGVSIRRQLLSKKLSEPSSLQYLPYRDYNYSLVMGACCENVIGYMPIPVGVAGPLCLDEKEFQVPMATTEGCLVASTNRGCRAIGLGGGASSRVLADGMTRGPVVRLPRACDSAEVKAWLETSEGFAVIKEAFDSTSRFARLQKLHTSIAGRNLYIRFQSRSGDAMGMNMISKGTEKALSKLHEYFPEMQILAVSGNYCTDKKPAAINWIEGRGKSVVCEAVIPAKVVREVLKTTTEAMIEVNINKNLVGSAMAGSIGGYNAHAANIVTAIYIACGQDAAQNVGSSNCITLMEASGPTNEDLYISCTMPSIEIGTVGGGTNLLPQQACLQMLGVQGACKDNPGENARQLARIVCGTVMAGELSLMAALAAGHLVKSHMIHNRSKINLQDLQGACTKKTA

[6] = target: T1, Proprotein convertase subtilisin/kexin type 9; assay: Inhibition of PCSK9 in human HepG2 cells assessed as restoration of LDLR at 1 uM relative to control; type: cell-based
[7] = target: T1, Proprotein convertase subtilisin/kexin type 9; assay: Inhibition of PCSK9 in human HepG2 cells assessed as increase in LDL uptake at 1 uM relative to control; type: cell-based
[8] = target: T1, Proprotein convertase subtilisin/kexin type 9; assay: Binding affinity to PCSK9 (unknown origin)
[9] = target: T1, Proprotein convertase subtilisin/kexin type 9; assay: Binding affinity to human PCSK9
[10] = target: T1, Proprotein convertase subtilisin/kexin type 9; assay: Inhibition of PCSK9 mediated LDLR degradation in human HepG2 cells assessed as restoration of LDLR; type: cell-based
Homo sapiens [11] = species: Homo sapiens; assay: Hypocholesterolemic activity in human assessed as reduction in LDL-C level at 10 to 20 mg; type: functional; set-up: scale not given: the % may be the effect or the level left; settings: dose 10-20 mg
[12] = target: Proprotein convertase subtilisin/kexin type 9 (Mus musculus, UniProt Q80W65); assay: Binding affinity to mouse PCSK9
Proprotein convertase subtilisin/kexin type 9 (Mus musculus, UniProt Q80W65), sequence (Q80W65 35-155 limits assumed): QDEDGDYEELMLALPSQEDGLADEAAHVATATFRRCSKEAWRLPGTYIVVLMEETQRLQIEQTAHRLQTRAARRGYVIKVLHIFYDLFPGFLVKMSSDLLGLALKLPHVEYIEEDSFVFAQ
Proprotein convertase subtilisin/kexin type 9 (Mus musculus, UniProt Q80W65), sequence (Q80W65 156-694 limits assumed): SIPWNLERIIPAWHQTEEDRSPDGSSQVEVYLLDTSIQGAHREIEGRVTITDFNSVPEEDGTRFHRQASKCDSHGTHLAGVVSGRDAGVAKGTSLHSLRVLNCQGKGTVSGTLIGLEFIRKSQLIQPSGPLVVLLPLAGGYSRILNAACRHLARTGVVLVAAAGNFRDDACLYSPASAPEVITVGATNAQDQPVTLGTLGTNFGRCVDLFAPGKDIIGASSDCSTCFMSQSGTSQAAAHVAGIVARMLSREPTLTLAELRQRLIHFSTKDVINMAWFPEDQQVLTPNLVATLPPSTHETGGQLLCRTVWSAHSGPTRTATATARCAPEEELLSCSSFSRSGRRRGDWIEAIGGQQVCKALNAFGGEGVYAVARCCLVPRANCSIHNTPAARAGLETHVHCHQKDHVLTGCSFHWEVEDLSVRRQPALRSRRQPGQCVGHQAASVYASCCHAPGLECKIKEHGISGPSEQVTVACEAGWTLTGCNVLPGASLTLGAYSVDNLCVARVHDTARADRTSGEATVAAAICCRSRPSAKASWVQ

PCSK9/LDLR [13] = target: T2, PCSK9/LDLR; assay: Inhibition of PCSK9-LDLR protein-protein interaction in human HepG2 cells assessed as increase in LDL uptake; type: cell-based
[14] = target: T1, Proprotein convertase subtilisin/kexin type 9; assay: Inhibition of human PCSK9 preincubated for 30 mins followed by LDLR addition and measured after 2 hrs by TR-FRET assay
Homo sapiens [15] = assay: Hypocholesterolemic activity in human assessed as reduction in LDL-C level at 300 mg, QD administered for 28 days; type: functional; set-up: scale not given: the % may be the effect or the level left; settings: time 28 day
Homo sapiens [16] = assay: Hypocholesterolemic activity in human assessed as reduction in TC level at 300 mg, QD administered for 28 days; type: functional; set-up: scale not given: the % may be the effect or the level left; settings: time 28 day
Homo sapiens [17] = assay: Hypocholesterolemic activity in human assessed as reduction in ApoB level at 300 mg, QD administered for 28 days; type: functional; set-up: scale not given: the % may be the effect or the level left; settings: time 28 day

Compound: CC[C@H](C)[C@H](NC(=O)[C@H](CCCCNC(=N)N)NC(=O)[C@@H](NC(=O)[C@H](CC(C)C)NC(=O)[C@H](CC(N)=O)NC(=O)[C@H](Cc1c[nH]c2ccccc12)NC(=O)C1(N)CCC(c2ccccc2)CC1)C(C)C)C(=O)NCC(=O)N[C@@H](CC(C)C)C(=O)N[C@@H](CC(C)C)C(=O)N[C@@H](CCCNC(=N)N)C(=O)O (stereo partly specified) (H-[X1]WNLV[hArg]IGLLR-OH)
- IC50 [1]: 700 nM
- IC50 [2]: 140 nM

Compound: CC[C@H](C)[C@H](NC(=O)[C@H](CCCCNC(=N)N)NC(=O)[C@@H](NC(=O)[C@H](CC(C)C)NC(=O)[C@H](CC(N)=O)NC(=O)[C@H](Cc1c[nH]c2ccccc12)NC(=O)[C@@H]1CCCN1C(=O)[C@H](CCSC)NC(=O)[C@H](CC(C)C)NC(=O)[C@@H](N)CC(=O)O)C(C)C)C(=O)NCC(=O)N[C@@H](CC(C)C)C(=O)N[C@@H](CC(C)C)C(=O)N[C@@H](CCCNC(=N)N)C(=O)O (H-DLMPWNLV[hArg]IGLLR-OH)
- IC50 [3]: > 50000 nM

Compound: CC(C)C[C@H](N)C(=O)N1CCC[C@H]1C(=O)N[C@@H](CCCCN)C(=O)N[C@@H](Cc1c[nH]cn1)C(=O)N[C@@H](CO)C(=O)N[C@@H](C)C(=O)N[C@@H](CC(=O)O)C(=O)O (H-LPKHSAD-OH)
- IC50 (PCSK9/LDLR [4]): 1700 nM
- IC50 [5]: 175000 nM

Compound: CC(=O)N[C@H](C(=O)N[C@H](C(=O)N[C@@H](Cc1ccccc1)C(=O)N[C@@H](CCCNC(=N)N)C(=O)N[C@@H](CO)C(=O)N[C@@H](Cc1c[nH]c2ccccc12)C(=O)N[C@@H](CCC(=O)O)C(=O)N[C@@H](CCC(=O)O)C(=O)N[C@@H](Cc1ccc(O)cc1)C(=O)N[C@@H](CC(C)C)C(=O)N[C@@H](CC(=O)O)C(=O)N[C@@H](Cc1ccc(O)cc1)C(=O)N[C@H](C(N)=O)C(C)C)C(C)C)[C@@H](C)O (Ac-TVFRSWEEYLDYV-NH2)
- IC50 (PCSK9/LDLR [4]): 14500 nM
- inhibition [6]: 75.3%
- inhibition [7]: 88%

Compound: CC(C)C[C@H](C(=O)N1CCN([C@@H](CC(N)=O)C(=O)N[C@@H](CCCNC(=N)N)C(=O)C[C@H]2CCOC2=O)CC1)N1C(=O)N[C@@H](CC(=O)O)C1=O
- Kd [8]: 24800 nM

Compound: CC[C@H](C)[C@H](NC(=O)[C@H](CCC(N)=O)NC(=O)[C@H](CC(C)C)NC(=O)[C@H](CC(N)=O)NC(=O)[C@H](Cc1c[nH]c2ccccc12)NC(=O)[C@@H]1CCCN1C(=O)[C@H](CC(C)C)NC(=O)[C@H](CCCNC(=N)N)NC(=O)[C@H](CS)NC(=O)CNC(=O)[C@H](CO)NC(=O)CNC(=O)[C@@H](NC(=O)[C@H](Cc1c[nH]c2ccccc12)NC(=O)[C@H](CC(=O)O)NC(=O)[C@H](CC(C)C)NC(=O)[C@H](Cc1ccc(O)cc1)NC(=O)[C@H](CCC(=O)O)NC(=O)[C@H](CCC(=O)O)NC(=O)[C@H](Cc1c[nH]c2ccccc12)NC(=O)[C@H](CO)NC(=O)[C@@H](NC(=O)[C@H](Cc1ccccc1)NC(=O)[C@@H](NC(=O)[C@@H](N)[C@@H](C)O)C(C)C)[C@@H](C)O)C(C)C)C(=O)NCC(=O)N[C@@H](CC(C)C)C(=O)N1CCC[C@H]1C(=O)N[C@@H](CS)C(=O)O (H-TVFTSWEEYLDWVGSGCRLPWNLQIGLPC-OH)
- Kd [9]: 5.5 nM
- IC50 [1]: 20 nM
- EC50 [10]: 250 nM
- IC50 [3]: > 50000 nM

Compound: CC[C@H](C)[C@H](NC(=O)[C@@H](N)CC(C)C)C(=O)N[C@@H](CC(C)C)C(=O)N1CCC[C@H]1C(=O)N[C@@H](CCCCN)C(=O)N[C@@H](Cc1c[nH]cn1)C(=O)N[C@@H](CO)C(=O)N[C@@H](C)C(=O)N[C@@H](CC(=O)O)C(=O)O (H-LILPKHSAD-OH)
- IC50 (PCSK9/LDLR [4]): 1600 nM
- IC50 [5]: 147000 nM

Compound: C[C@H]1NC(=O)[C@H](CNC(=O)CCOCCOCC[N+](C)(C)C)NC(=O)CCSCc2cc3cc(c2)-n2cc(nn2)Cn2cc(c4cc(F)ccc42)C[C@@H]2NC(=O)[C@H](Cc4cccc(c4)C/C=C/CCO[C@H]4CCN(C2=O)[C@@H]4C(=O)N[C@@H]([C@@H](C)O)C(=O)N[C@@H](Cc2ccc(O)cc2)C(=O)N2CCC[C@@]2(C)C(=O)NCCSC3)NC1=O
- Activity (Homo sapiens [11]): 65%

Compound: CC(C)[C@@H]1NC(=O)[C@H](Cc2ccccc2)NC(=O)CSC[C@@H](C(=O)NCC(N)=O)NC(=O)[C@@H]2CCCN2C(=O)[C@H](CCCNC(=N)N)NC(=O)[C@H](CC(=O)O)NC(=O)[C@H](C)N(C)C(=O)[C@H](Cc2ccc(-c3ccccc3)cc2)NC(=O)[C@H](C)N(C)C(=O)[C@H](Cc2ccc(-c3ccccc3)cc2)NC(=O)[C@H]([C@@H](C)O)NC(=O)[C@H]([C@@H](C)O)NC(=O)[C@H](CO)NC1=O
- Kd [9]: 0.3 nM
- Kd [12]: 1 nM
- EC50 (PCSK9/LDLR [13]): 106 nM

Compound: CC[C@H](C)[C@H](NC(=O)[C@H](CCCCNC(=N)N)NC(=O)[C@H](CCCCN)NC(=O)[C@H](CC(C)C)NC(=O)[C@H](CC(N)=O)NC(=O)[C@H](Cc1c[nH]c2ccccc12)NC(=O)C1(N)CCC(c2ccccc2)CC1)C(=O)NCC(=O)N[C@@H](CC(C)C)C(=O)N[C@@H](CC(C)C)C(=O)N[C@@H](CCCNC(=N)N)C(=O)O (stereo partly specified) (H-[X1]WNLK[hArg]IGLLR-OH)
- Kd [9]: 390 nM
- inhibition [10]: 50%
- IC50 [2]: 40 nM
- IC50 [3]: 720 nM
- IC50 [14]: 1830 nM

Compound: CC[C@H](C)[C@H](NC(=O)[C@H](CCCCNC(=N)N)NC(=O)[C@@H](NC(=O)[C@H](CC(C)C)NC(=O)[C@H](CC(N)=O)NC(=O)[C@@H](N)Cc1c[nH]c2ccccc12)C(C)C)C(=O)NCC(=O)N[C@@H](CC(C)C)C(=O)N[C@@H](CC(C)C)C(=O)N[C@@H](CCCNC(=N)N)C(=O)O (H-WNLV[hArg]IGLLR-OH)
- IC50 [3]: > 50000 nM

Compound: CC[C@H](C)[C@H](NC(=O)[C@H](CCCCNC(=N)N)NC(=O)[C@@H](NC(=O)[C@H](CC(C)C)NC(=O)[C@H](CC(N)=O)NC(=O)[C@H](Cc1c[nH]c2ccccc12)NC(=O)CNC(=O)[C@@H]1CCCN1C(=O)[C@H](Cc1ccccc1)NC(=O)[C@H](CO)NC(=O)[C@H](CCC(=O)O)NC(=O)[C@@H](N)CCSC)C(C)C)C(=O)NCC(=O)N[C@@H](CC(C)C)C(=O)N[C@@H](CC(C)C)C(=O)N[C@@H](CCCNC(=N)N)C(=O)O (H-MESFPGWNLV[hArg]IGLLR-OH)
- Kd [9]: 700 nM
- inhibition [10]: 70%
- IC50 [2]: 840 nM
- IC50 [14]: 25000 nM

Compound: CC(C)C[C@H](NC(=O)[C@H](Cc1ccc(O)cc1)NC(=O)[C@@H](N)CC(C)C)C(=O)N1CCC[C@H]1C(=O)N[C@@H](CCCCN)C(=O)N[C@@H](Cc1c[nH]cn1)C(=O)N[C@@H](CO)C(=O)N[C@@H](CC(=O)O)C(=O)N[C@@H](CCCNC(=N)N)C(=O)N[C@@H](CC(=O)O)C(=O)O (H-LYLPKHSDRD-OH)
- IC50 (PCSK9/LDLR [4]): 700 nM

Compound: COc1ccc2c(c1)CCN1Cc3c(ccc(OC)c3OS(=O)(=O)c3cccc(F)c3)C[C@H]21.Cl
- Activity (Homo sapiens [15]): 26.3%
- Activity (Homo sapiens [16]): 20.1%
- Activity (Homo sapiens [17]): 17.4%

Compound: CC(=O)N[C@H](C(=O)N[C@H](C(=O)N[C@@H](Cc1ccccc1)C(=O)N[C@H](C(=O)N[C@@H](CO)C(=O)N[C@@H](Cc1c[nH]c2ccccc12)C(=O)N[C@@H](CCC(=O)O)C(=O)N[C@@H](CCC(=O)O)C(=O)N[C@@H](C)C(=O)N[C@@H](CC(C)C)C(=O)N[C@@H](CC(=O)O)C(=O)N[C@@H](Cc1c[nH]c2ccccc12)C(=O)N[C@H](C(N)=O)C(C)C)[C@@H](C)O)C(C)C)[C@@H](C)O (Ac-TVFTSWEEALDWV-NH2)
- IC50 (PCSK9/LDLR [4]): 27100 nM
- inhibition [6]: 89.9%
- inhibition [7]: 99%
